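96-well plates; 48 h exposure; 5 concentrations. Endpoints by linear interpolation between flanking doses. Not reached: highest tested concentration assigned. Here, GI50 denotes the concentration required for 50% inhibition of growth.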 Calls of active or inactive are those of the source. Rule as the data show it: active = GI50 up to about 1.1 µM and inactive = higher.
How the values were obtained:
Assay in all cases: inhibition of tumour cell growth, NCI panel, 48 h
MOLT-4 = tested on: MOLT-4
EKVX = tested on: EKVX
OVCAR-4 = tested on: OVCAR-4
SK-MEL-5 = tested on: SK-MEL-5
SK-MEL-28 = tested on: SK-MEL-28
COLO 205 = tested on: COLO 205
SW-620 = tested on: SW-620
SK-MEL-2 = tested on: SK-MEL-2
CCRF-CEM = tested on: CCRF-CEM
SF-539 = tested on: SF-539
OVCAR-8 = tested on: OVCAR-8
HCT-116 = tested on: HCT-116
LXFL 529 = tested on: LXFL 529
RXF 631 = tested on: RXF 631
SF-268 = tested on: SF-268
NCI-H226 = tested on: NCI-H226
U-251 = tested on: U-251
Malme-3M = tested on: Malme-3M
SK-OV-3 = tested on: SK-OV-3
OVCAR-3 = tested on: OVCAR-3
CAKI-1 = tested on: CAKI-1
UACC-62 = tested on: UACC-62
OVCAR-5 = tested on: OVCAR-5
HCT-15 = tested on: HCT-15
A549 = tested on: A549
786-0 = tested on: 786-0
NCI-H460 = tested on: NCI-H460
DMS-273 = tested on: DMS-273
NCI-H23 = tested on: NCI-H23
XF498 = tested on: XF498
KM12 = tested on: KM12
DMS-114 = tested on: DMS-114
SN12C = tested on: SN12C
TK-10 = tested on: TK-10
ACHN = tested on: ACHN
SNB-78 = tested on: SNB-78
SNB-75 = tested on: SNB-75
A498 = tested on: A498
HOP-62 = tested on: HOP-62
M19-MEL = tested on: M19-MEL
HOP-92 = tested on: HOP-92
SF-295 = tested on: SF-295
SR = tested on: SR
RPMI-8226 = tested on: RPMI-8226
KM-20L2 = tested on: KM-20L2
RXF 393 = tested on: RXF 393
HOP-18 = tested on: HOP-18
UACC-257 = tested on: UACC-257
SNB-19 = tested on: SNB-19
IGROV-1 = tested on: IGROV-1
K562 = tested on: K562
UO-31 = tested on: UO-31
HL-60 = tested on: HL-60
M14 = tested on: M14
NCI-H522 = tested on: NCI-H522
HCC 2998 = tested on: HCC 2998
HT-29 = tested on: HT-29
LOX IMVI = tested on: LOX IMVI
DLD-1 = tested on: DLD-1

CCOc1ccc(NC(=O)C(=O)CC(=O)c2c[n+]([O-])c3cc(C)c(C)cc3[n+]2[O-])cc1
GI50 (MOLT-4): > 100 µM (inactive) | GI50 (EKVX): 90.8 µM (inactive) | GI50 (OVCAR-4): > 100 µM (inactive) | GI50 (SK-MEL-5): > 100 µM (inactive) | GI50 (SK-MEL-28): > 100 µM (inactive) | GI50 (COLO 205): > 100 µM (inactive) | GI50 (SW-620): > 100 µM (inactive) | GI50 (SK-MEL-2): > 100 µM (inactive) | GI50 (CCRF-CEM): > 100 µM (inactive) | GI50 (SF-539): > 100 µM (inactive) | GI50 (OVCAR-8): > 100 µM (inactive) | GI50 (HCT-116): > 100 µM (inactive) | GI50 (LXFL 529): > 100 µM (inactive) | GI50 (RXF 631): > 100 µM (inactive) | GI50 (SF-268): > 100 µM (inactive) | GI50 (NCI-H226): > 100 µM (inactive) | GI50 (U-251): > 100 µM (inactive) | GI50 (Malme-3M): > 100 µM (inactive) | GI50 (SK-OV-3): > 100 µM (inactive) | GI50 (OVCAR-3): > 100 µM (inactive) | GI50 (CAKI-1): > 100 µM (inactive) | GI50 (UACC-62): > 100 µM (inactive) | GI50 (OVCAR-5): > 100 µM (inactive) | GI50 (HCT-15): > 100 µM | GI50 (A549): > 100 µM (inactive) | GI50 (786-0): > 100 µM (inactive) | GI50 (NCI-H460): > 100 µM (inactive) | GI50 (DMS-273): > 100 µM (inactive) | GI50 (NCI-H23): > 100 µM (inactive) | GI50 (XF498): > 100 µM (inactive) | GI50 (KM12): > 100 µM (inactive) | GI50 (DMS-114): > 100 µM (inactive) | GI50 (SN12C): > 100 µM (inactive) | GI50 (TK-10): > 100 µM (inactive) | GI50 (ACHN): > 100 µM (inactive) | GI50 (SNB-78): > 100 µM (inactive) | GI50 (SNB-75): > 100 µM (inactive) | GI50 (A498): > 100 µM (inactive) | GI50 (HOP-62): > 100 µM (inactive) | GI50 (M19-MEL): > 100 µM (inactive) | GI50 (HOP-92): > 100 µM (inactive) | GI50 (SF-295): > 100 µM (inactive) | GI50 (SR): > 100 µM (inactive) | GI50 (RPMI-8226): > 100 µM (inactive) | GI50 (KM-20L2): > 100 µM (inactive) | GI50 (RXF 393): > 100 µM (inactive) | GI50 (HOP-18): > 100 µM (inactive) | GI50 (UACC-257): > 100 µM (inactive) | GI50 (SNB-19): > 100 µM (inactive) | GI50 (IGROV-1): > 100 µM (inactive) | GI50 (K562): > 100 µM (inactive) | GI50 (UO-31): > 100 µM (inactive) | GI50 (HL-60): > 100 µM (inactive) | GI50 (M14): > 100 µM (inactive) | GI50 (NCI-H522): > 100 µM (inactive) | GI50 (HCC 2998): > 100 µM (inactive) | GI50 (HT-29): > 100 µM (inactive) | GI50 (LOX IMVI): > 100 µM (inactive)

CCC1(O)C(=O)OCc2c1cc1n(c2=O)Cc2cc3ccc(CO)cc3nc2-1 (stereo unspecified)
GI50 (MOLT-4): 0.322 µM (active) | GI50 (EKVX): 16.8 µM (inactive) | GI50 (OVCAR-4): 23.8 µM (inactive) | GI50 (SK-MEL-5): 3.08 µM (inactive) | GI50 (SK-MEL-28): > 78.5 µM (inactive) | GI50 (COLO 205): 14.2 µM (inactive) | GI50 (SW-620): 7.52 µM (inactive) | GI50 (SK-MEL-2): 18 µM (inactive) | GI50 (CCRF-CEM): 0.186 µM (active) | GI50 (SF-539): 1.42 µM (inactive) | GI50 (OVCAR-8): 2.62 µM (inactive) | GI50 (HCT-116): 4.85 µM (inactive) | GI50 (LXFL 529): 26.7 µM (inactive) | GI50 (RXF 631): 3.31 µM (inactive) | GI50 (DLD-1): 51.3 µM (inactive) | GI50 (SF-268): 0.995 µM (active) | GI50 (NCI-H226): 1.59 µM (inactive) | GI50 (U-251): 0.705 µM (active) | GI50 (Malme-3M): 4.53 µM (inactive) | GI50 (SK-OV-3): 2.26 µM (inactive) | GI50 (OVCAR-3): 4.55 µM (inactive) | GI50 (CAKI-1): 2.97 µM (inactive) | GI50 (UACC-62): 0.757 µM (active) | GI50 (OVCAR-5): 8.97 µM (inactive) | GI50 (HCT-15): 15.6 µM | GI50 (A549): 6.04 µM (inactive) | GI50 (786-0): 1.99 µM (inactive) | GI50 (NCI-H460): 1.09 µM (active) | GI50 (DMS-273): 1.12 µM (active) | GI50 (NCI-H23): 2.07 µM (inactive) | GI50 (XF498): 1.29 µM (inactive) | GI50 (KM12): 9.35 µM (inactive) | GI50 (DMS-114): 1.82 µM (inactive) | GI50 (SN12C): 1.53 µM (inactive) | GI50 (TK-10): > 95.3 µM (inactive) | GI50 (ACHN): 2.86 µM (inactive) | GI50 (SNB-75): 2.18 µM (inactive) | GI50 (A498): 7.82 µM (inactive) | GI50 (HOP-62): 0.566 µM (active) | GI50 (M19-MEL): 3.71 µM (inactive) | GI50 (HOP-92): 16.3 µM (inactive) | GI50 (SF-295): 3.18 µM (inactive) | GI50 (SR): 0.0646 µM (active) | GI50 (RPMI-8226): 7.08 µM (inactive) | GI50 (KM-20L2): 13.5 µM (inactive) | GI50 (RXF 393): 7.26 µM (inactive) | GI50 (HOP-18): 5.46 µM (inactive) | GI50 (UACC-257): 12.2 µM (inactive) | GI50 (SNB-19): 1.93 µM (inactive) | GI50 (IGROV-1): 12.2 µM (inactive) | GI50 (K562): 4.3 µM (inactive) | GI50 (UO-31): 3.81 µM (inactive) | GI50 (HL-60): 2.57 µM (inactive) | GI50 (M14): 3.59 µM (inactive) | GI50 (NCI-H522): 1.64 µM (inactive) | GI50 (HCC 2998): 8.26 µM (inactive) | GI50 (HT-29): 9.35 µM (inactive) | GI50 (LOX IMVI): 1.83 µM (inactive)

Reference: ChEMBL document CHEMBL1201862, “PubChem BioAssay data set” (2004)
